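Briefly, cells in 96-well plates were exposed to five compound concentrations for 48 h, and endpoints were estimated by linear interpolation. GI50: concentration for 50% inhibition of growth. The concentration for full growth arrest is given as TGI.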
Experiments:
Assay in all cases: NCI anticancer screen, dose series, 48 h
U251 CNS = test system: U251 CNS
HOP-62 NSCLC = test system: HOP-62 NSCLC
A549 NSCLC = test system: A549 NSCLC
ACHN renal = test system: ACHN renal
SF-539 CNS = test system: SF-539 CNS
HT29 colon = test system: HT29 colon
SK-OV-3 ovarian = test system: SK-OV-3 ovarian
SN12C renal = test system: SN12C renal
M14 melanoma = test system: M14 melanoma
TK-10 renal = test system: TK-10 renal
K-562 leukemia = test system: K-562 leukemia
MCF7 breast = test system: MCF7 breast
HCT-116 colon = test system: HCT-116 colon
HL-60(TB) leukemia = test system: HL-60(TB) leukemia
KM12 colon = test system: KM12 colon
HOP-92 NSCLC = test system: HOP-92 NSCLC
NCI-H460 lung = test system: NCI-H460 lung
786-0 renal = test system: 786-0 renal
IGROV1 ovarian = test system: IGROV1 ovarian
SW-620 colon = test system: SW-620 colon
SR leukemia = test system: SR leukemia
UACC-62 melanoma = test system: UACC-62 melanoma
MDA-MB-231 breast = test system: MDA-MB-231 breast
UO-31 renal = test system: UO-31 renal
CCRF-CEM leukemia = test system: CCRF-CEM leukemia
SNB-19 CNS = test system: SNB-19 CNS
SK-MEL-2 melanoma = test system: SK-MEL-2 melanoma
DU-145 prostate = test system: DU-145 prostate
HCT-15 colon = test system: HCT-15 colon
MOLT-4 leukemia = test system: MOLT-4 leukemia
UACC-257 melanoma = test system: UACC-257 melanoma
A498 renal = test system: A498 renal
CAKI-1 renal = test system: CAKI-1 renal
RPMI-8226 leukemia = test system: RPMI-8226 leukemia
LOX IMVI melanoma = test system: LOX IMVI melanoma
SK-MEL-5 melanoma = test system: SK-MEL-5 melanoma
MALME-3M melanoma = test system: MALME-3M melanoma
NCI-H226 lung = test system: NCI-H226 lung
OVCAR-3 ovarian = test system: OVCAR-3 ovarian
NCI/ADR-RES ovarian = test system: NCI/ADR-RES ovarian
SF-295 CNS = test system: SF-295 CNS
HS 578T breast = test system: HS 578T breast
COLO 205 colon = test system: COLO 205 colon
OVCAR-5 ovarian = test system: OVCAR-5 ovarian
SF-268 CNS = test system: SF-268 CNS
NCI-H522 lung = test system: NCI-H522 lung
SNB-75 CNS = test system: SNB-75 CNS
BT-549 breast = test system: BT-549 breast
HCC-2998 colon = test system: HCC-2998 colon
OVCAR-8 ovarian = test system: OVCAR-8 ovarian
RXF 393 renal = test system: RXF 393 renal
EKVX NSCLC = test system: EKVX NSCLC
OVCAR-4 ovarian = test system: OVCAR-4 ovarian
PC-3 prostate = test system: PC-3 prostate
NCI-H23 lung = test system: NCI-H23 lung

In the case of `CC(=O)O[C@H](C[C@H](C(C)C)N(C)C(=O)[C@@H](NC(=O)[C@H]1CCCCN1C)C(C)C)c1nc(C(=O)N[C@@H](Cc2ccccc2)C[C@H](C)C(=O)O)c(C(C)C)s1`, the GI50 (U251 CNS) is reported as under 3.33 nM, the TGI (U251 CNS) is reported as over 33300 nM and the GI50 (HOP-62 NSCLC) is reported as under 3.33 nM. The TGI (HOP-62 NSCLC) was over 33300 nM, the GI50 (A549 NSCLC) was 4.95 nM and the TGI (A549 NSCLC) was over 33300 nM. It also gave a GI50 (ACHN renal) of 4.58 nM, a TGI (ACHN renal) of over 18500 nM and a GI50 (SF-539 CNS) of under 3.33 nM. The TGI (SF-539 CNS) was 3.91 nM, the GI50 (HT29 colon) was under 3.33 nM and the TGI (HT29 colon) was over 33300 nM. It also gave a GI50 (SK-OV-3 ovarian) of under 3.33 nM, a TGI (SK-OV-3 ovarian) of over 33300 nM and a GI50 (SN12C renal) of under 3.33 nM. It also gave a TGI (SN12C renal) of over 33300 nM, a GI50 (M14 melanoma) of under 3.33 nM and a TGI (M14 melanoma) of 161 nM. It also gave a GI50 (TK-10 renal) of 475 nM, a TGI (TK-10 renal) of over 33300 nM and a GI50 (K-562 leukemia) of under 3.33 nM. The TGI (K-562 leukemia) was over 33300 nM, the GI50 (MCF7 breast) was under 3.33 nM and the TGI (MCF7 breast) was over 33300 nM. It also gave a GI50 (HCT-116 colon) of under 3.33 nM, a TGI (HCT-116 colon) of 773 nM and a GI50 (HL-60(TB) leukemia) of under 3.33 nM. The TGI (HL-60(TB) leukemia) was under 3.33 nM, the GI50 (KM12 colon) was under 3.33 nM and the GI50 (HOP-92 NSCLC) was 5.21 nM. The TGI (HOP-92 NSCLC) was over 15500 nM, the GI50 (NCI-H460 lung) was under 3.33 nM and the TGI (NCI-H460 lung) was 5050 nM. For the same molecule, the GI50 (786-0 renal) was under 3.33 nM, the TGI (786-0 renal) was 9510 nM and the GI50 (IGROV1 ovarian) was under 3.33 nM. The TGI (IGROV1 ovarian) was over 33300 nM, the GI50 (SW-620 colon) was under 3.33 nM and the TGI (SW-620 colon) was over 33300 nM. For the same molecule, the GI50 (SR leukemia) was under 3.33 nM, the TGI (SR leukemia) was over 33300 nM and the GI50 (UACC-62 melanoma) was under 3.33 nM. It also gave a TGI (UACC-62 melanoma) of over 33300 nM, a GI50 (MDA-MB-231 breast) of under 3.33 nM and a TGI (MDA-MB-231 breast) of over 15500 nM. For the same molecule, the GI50 (UO-31 renal) was 16.1 nM, the TGI (UO-31 renal) was over 33300 nM and the GI50 (CCRF-CEM leukemia) was under 3.33 nM. The TGI (CCRF-CEM leukemia) was over 33300 nM, the GI50 (SNB-19 CNS) was under 3.33 nM and the TGI (SNB-19 CNS) was over 33300 nM. The GI50 (SK-MEL-2 melanoma) was under 3.33 nM, the TGI (SK-MEL-2 melanoma) was 19200 nM and the GI50 (DU-145 prostate) was under 3.33 nM. For the same molecule, the TGI (DU-145 prostate) was 82.7 nM, the GI50 (HCT-15 colon) was 10.1 nM and the TGI (HCT-15 colon) was over 33300 nM. For the same molecule, the GI50 (MOLT-4 leukemia) was under 3.33 nM, the TGI (MOLT-4 leukemia) was over 33300 nM and the GI50 (UACC-257 melanoma) was over 33300 nM. It also gave a TGI (UACC-257 melanoma) of over 33300 nM, a GI50 (A498 renal) of under 3.33 nM and a TGI (A498 renal) of under 3.33 nM. For the same molecule, the GI50 (CAKI-1 renal) was under 3.33 nM, the TGI (CAKI-1 renal) was over 27400 nM and the GI50 (RPMI-8226 leukemia) was under 3.33 nM. For the same molecule, the TGI (RPMI-8226 leukemia) was over 22600 nM, the GI50 (LOX IMVI melanoma) was under 3.33 nM and the TGI (LOX IMVI melanoma) was 10500 nM. For the same molecule, the GI50 (SK-MEL-5 melanoma) was under 3.33 nM, the TGI (SK-MEL-5 melanoma) was 6.41 nM and the GI50 (MALME-3M melanoma) was under 3.33 nM. The TGI (MALME-3M melanoma) was over 33300 nM, the GI50 (NCI-H226 lung) was 3.35 nM and the TGI (NCI-H226 lung) was 382 nM. It also gave a GI50 (OVCAR-3 ovarian) of under 3.33 nM, a TGI (OVCAR-3 ovarian) of 5.98 nM and a GI50 (NCI/ADR-RES ovarian) of 69.1 nM. For the same molecule, the GI50 (SF-295 CNS) was under 3.33 nM, the TGI (SF-295 CNS) was 297 nM and the GI50 (HS 578T breast) was under 3.33 nM. For the same molecule, the TGI (HS 578T breast) was 3080 nM, the GI50 (COLO 205 colon) was under 3.33 nM and the TGI (COLO 205 colon) was under 33 nM. The GI50 (OVCAR-5 ovarian) was 17.6 nM, the TGI (OVCAR-5 ovarian) was over 33300 nM and the GI50 (SF-268 CNS) was under 3.33 nM. The TGI (SF-268 CNS) was over 33300 nM, the GI50 (NCI-H522 lung) was under 3.33 nM and the TGI (NCI-H522 lung) was 499 nM. For the same molecule, the GI50 (SNB-75 CNS) was under 3.33 nM, the TGI (SNB-75 CNS) was 29100 nM and the GI50 (BT-549 breast) was 3.38 nM. For the same molecule, the TGI (BT-549 breast) was 14.7 nM, the GI50 (HCC-2998 colon) was under 3.33 nM and the TGI (HCC-2998 colon) was 2000 nM. It also gave a GI50 (OVCAR-8 ovarian) of under 3.33 nM, a TGI (OVCAR-8 ovarian) of over 33300 nM and a GI50 (RXF 393 renal) of under 3.33 nM. The TGI (RXF 393 renal) was over 33300 nM, the GI50 (EKVX NSCLC) was 3.36 nM and the TGI (EKVX NSCLC) was over 33300 nM. The GI50 (OVCAR-4 ovarian) was 6.73 nM, the TGI (OVCAR-4 ovarian) was over 33300 nM and the GI50 (PC-3 prostate) was under 3.33 nM. It also gave a TGI (PC-3 prostate) of over 33300 nM, a GI50 (NCI-H23 lung) of under 3.33 nM and a TGI (NCI-H23 lung) of over 33300 nM.

— PubChem BioAssay (NCI)
